Measured values taken from patent publication US5914338A, “Heterocyclic compounds and their preparation and use” (Novo Nordisk, priority 1996, dated 1999).
pIC50, pKd: −log10 of the molar value. Counter-ions that a name gives are not always drawn. Like-named read-outs stand apart in the source and are kept apart here.

Legend:
[1] = molecular target: T1, subtype of muscarinic receptors (M1-site, pirenzepine sensitive site), rat cerebral cortex membranes (Rattus norvegicus, UniProt P08482); assay: inhibition of ^3 H-PRZ (pirenzepine, [N-methyl-^3 H]) binding to rat cerebral cortex membranes; parameters: species or system rat (male Wistar)
T1 construct: Fresh cortex (0.1-1 g) from male Wistar rats (150-200 g) is homogenized; from tissue; host or cells: fresh cerebral cortex membranes of male Wistar rats
T1 sequence (P08482 1-460): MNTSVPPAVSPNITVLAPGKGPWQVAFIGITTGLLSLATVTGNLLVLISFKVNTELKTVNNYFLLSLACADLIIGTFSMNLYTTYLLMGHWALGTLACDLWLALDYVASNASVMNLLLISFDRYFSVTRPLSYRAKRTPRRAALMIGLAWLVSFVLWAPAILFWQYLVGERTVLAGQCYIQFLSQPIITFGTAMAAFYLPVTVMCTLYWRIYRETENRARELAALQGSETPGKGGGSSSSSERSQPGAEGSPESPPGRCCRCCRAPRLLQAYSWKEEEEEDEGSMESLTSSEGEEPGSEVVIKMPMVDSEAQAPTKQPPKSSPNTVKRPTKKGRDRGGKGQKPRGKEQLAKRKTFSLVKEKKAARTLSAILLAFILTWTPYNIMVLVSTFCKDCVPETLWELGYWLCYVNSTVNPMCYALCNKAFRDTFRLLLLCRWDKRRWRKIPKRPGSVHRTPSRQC
Protocol: Furthermore, the pharmacological properties of the compounds of the invention can also be illustrated by determining their capability to inhibit ^3 H-PRZ (pirenzepine, [N-methyl-^3 H]) binding to rat cerebral cortex membranes. Pirenzepine binds selectively to subtype of muscarinic receptors. Historically the type is named the M1 -site, whereas pirenzepine sensitive site would be more appropriate.
(§1) All preparations are performed at 0-4° C. unless otherwise indicated. Fresh cortex (0.1-1 g) from male Wistar rats (150-200 g) is homogenized for 5-10 s. in 10 ml 20 mM Hepes pH: 7.4, with an Ultra-Turraxhomogenizer. The homogenizer is rinsed with 2×10 ml of buffer and the combined suspension centrifuged for 15 min at 40,000×g. The pellet is washed three times with buffer. In each step the pellet is homogenized as before in 3×10 ml of buffer and centrifuged for 10 min at 40,000×g.
The final pellet is homogenized in 20 mM Hepes pH: 7.4 (100 ml per g of original tissue) and used for binding assay. Aliquots of 0.5 ml is added 20 μl of test solution and 25 μl of ^3 H-Pirenzepine (1.0 nM, final conc.), mixed and incubated for 60 min at 20° C. Non-specificbinding is determined in triplicate using atropine (1 μg/ml, final conc.) as the test substance. After incubation samples are added 5 ml of ice-cold buffer and poured directly onto Whatman GF/C glass fibre filters under suction and immediately washed 2 times with 5 ml of ice-cold buffer. The amount of radioactivity on the filters are determined by conventional liquid scintillation counting. Specific binding is total binding minus non-specific binding.
Test substances are dissolved in 10 ml water, at a concentration of 0.22 mg/ml. 25-75% inhibition of specific binding must be obtained before calculation of IC50.
The test value will be given as IC50 (the concentration (nM) of the test substance which inhibits the specific binding of ^3 H-PRZ by 50%) .
(§2) IC50 =(applied test substance concentration) x(Cx /Co
(§3) where Co is specific binding in control assays and Cx is the specific binding in the test assay. (The calculations assume normal mass-action kinetics).

[2] = molecular target: muscarinic acetylcholine receptors; assay: inhibition of specific binding of ^3 H-Oxotremorine-M (^3 H-Oxo), fresh rat cortex; parameters: species or system rat (male Wistar); conditions: ^3 H-Oxotremorine 1.0 nM, 30 min at 25° C, pH 7.4
From the text: The pharmacological properties of the compounds of the invention can be illustrated by determining their capability to inhibit the specific binding of ^3 H-Oxotremorine-M (^3 H-Oxo). Birdsdall N. J. M., Hulme E. C., and Burgen A. S. V. (1980). "The Character of Muscarinic Receptors in Different Regions of the Rat Brain". Proc. Roy. Soc. London (Series B) 207,1.
^3 H-Oxo labels muscarinic receptor in the CNS (with a preference for agonist domains of the receptors). Three different sites are labelled by ^3 H-Oxo. […] Using the present experimental conditions only the high and medium affinity sites are determined.
The inhibitory effects of compounds on ^3 H-Oxo binding reflects the affinity for muscarinic acetylcholine receptors.
as §1, with “(150-250” for “(150-200”, “s” for “s.”, “Ultra-Turrax homogenizer.” for “Ultra-Turraxhomogenizer.”, “10” for “2×10”, “min.” for “min”, “2×10” for “3×10”
The final pellet is homogenized in 20 mM Hepes pH: 7.4 (100 ml per g of original tissue) and used for binding assay. Aliquots of 0.5 ml is added 25 μl of test solution and 25 μl of ^3 H-Oxotremorine (1.0 nM, final concentration) mixed and incubated for 30 min. at 25° C. Non-specific is determined in triplicate using arecoline (1 μg/ml, final concentration) as the test substance. After incubation samples are added 5 ml of ice-cold buffer and poured directly onto Whatman GF/C glass fiber filters under suction and immediately washed 2 times with 5 ml of ice-cold buffer. The amount of radioactivity on the filters are determined by conventional liquid scintillation counting. Specific binding is total binding minus non specific binding.
Test substances are dissolved in 10 ml water (if necessary heated on a steambath for less than 5 min.) at a concentration of 2.2 mg/ml. 25-75% inhibition of specific binding must be obtained before calculation of IC50.
The test value will be given as IC50 (the concentration (nM) of the test substance which inhibits the specific binding of ^3 H-Oxo by 50%) .
as §2, §3

[3] = molecular target: muscarinic receptor in the CNS; conditions: read-out: affinity of site labelled by ^3 H-Oxo, cited from earlier work
M1-sites = conditions: cited from earlier work
M2-sites = conditions: cited from earlier work
[4] = ^3 H-Pirenzepine 1.0 nM, rat cortex, 60 min at 20° C, pH 7.4, read-out: ^3 H-PRZ IC50

Question: Which results are given for COc1cccc(C#CCOc2nsnc2C23CN4CC2C3C4)c1 [Compound 10, 1-(3-[3-(3-Methoxyphenyl)-2-propyn-1-yloxy]-1,2,5-thiadiazol-4-yl)-4-azatricyclo[2.2.1.0^2,6]heptane, hydrochloride]?
Answer: pIC50 [1, 4]: 6.49; pIC50 [2]: 7.60

Question: With CCCSc1nsnc1C12CN3CC1C2C3 [Compound 2, 1-(3-Propylthio-1,2,5-thiadiazol-4-yl)-4-azatricyclo[2.2.1.0^2,6]heptane, oxalate] as the compound, how does the pIC50 [1] read?
Answer: 7.00

Question: What about the pIC50 [2] of the same compound?
Answer: 8.37

Question: With C[N+](C)(C)CC#CCN1CCCC1=O [^3 H-Oxo, ^3 H-Oxotremorine-M] as the compound, how does the pKd ([3]; first (high affinity) site) read?
Answer: 8.74

Question: What about the pKd ([3]; second (medium affinity) site) of the same compound?
Answer: 7.70

Question: And the pKd ([3]; third site, not determined under the present conditions)?
Answer: 5.52

Question: With C(#Cc1cccs1)COc1nsnc1C12CN3CC1C2C3 [Compound 9, 1-(3-[3-(2-Thienyl)-2-propyn-1-yloxy]-1,2,5-thiadiazol-4-yl)-4-azatricyclo[2.2.1.0^2,6]heptane, oxalate] as the compound, how does the pIC50 [1, 4] read?
Answer: 6.55

Question: What about the pIC50 [2] of the same compound?
Answer: 7.82

Question: With C(#Cc1cccnc1)COc1nsnc1C12CN3CC1C2C3 [Compound 11, 1-(3-[3-(3-Pyridyl)-2-propyn-1-yloxy]-1,2,5-thiadiazol-4-yl)-4-azatricyclo[2.2.1.0^2,6]heptane, oxalate] as the compound, how does the pIC50 [1, 4] read?
Answer: 6.40

Question: And the pIC50 [2]?
Answer: 8.22

Question: With C(#Cc1ccccc1)COc1nsnc1C12CN3CC1C2C3 [Compound 7, 1-[3-(3-Phenyl-2-propynyl-1-oxy)-1,2,5-thiadiazol-4-yl]-4-azatricyclo[2.2.1.0^2,6]heptane, oxalate] as the compound, how does the pIC50 [1, 4] read?
Answer: 6.74

Question: What about the pIC50 [2] of the same compound?
Answer: 7.59

Question: With N#Cc1ccc(CSc2nsnc2C23CN4CC2C3C4)cc1 [Compound 4, 1-[3-(4-Cyanobenzylthio)-1,2,5-thiadiazol-4-yl]-4-azatricyclo[2.2.1.0^2,6]heptane, oxalate] as the compound, how does the pIC50 [1, 4] read?
Answer: 6.30

Question: What about the pIC50 [2] of the same compound?
Answer: 7.39

Question: With FC(F)(F)CCSc1nsnc1C12CN3CC1C2C3 [Compound 3, 1-(3,3,3-Trifluoropropylthio-1,2,5-thiadiazol-4-yl)-4-azatricyclo[2.2.1.0^2,6]heptane, oxalate] as the compound, how does the pIC50 [1, 4] read?
Answer: 6.61

Question: What about the pIC50 [2] of the same compound?
Answer: 7.85

Question: With C(#Cc1ccsc1)COc1nsnc1C12CN3CC1C2C3 [Compound 8, 1-(3-[3-(3-Thienyl)-2-propyn-1-yloxy]-1,2,5-thiadiazol-4-yl)-4-azatricyclo[2.2.1.0^2,6]heptane, oxalate] as the compound, how does the pIC50 [1, 4] read?
Answer: 6.74

Question: And the pIC50 [2]?
Answer: 8.06

Question: For CN1CCN(CC(=O)N2c3ccccc3C(=O)Nc3cccnc32)CC1 [pirenzepine], which “selectivity for M1-sites” value (M1-sites) is on record?
Answer: selective for M1 -sites

Question: What about the “interaction with M2-sites” value (M2-sites) of the same compound?
Answer: also interact with M2 -sites

Question: With Fc1ccc(C#CCOc2nsnc2C23CN4CC2C3C4)cc1 [Compound 6, 1-(3-[3-(4-Fluorophenyl)-2-propynyl-1-oxy]-1,2,5-thiadiazol-4-yl)-4-azatricyclo[2.2.1.0^2,6]heptane, oxalate] as the compound, how does the pIC50 [1, 4] read?
Answer: 7.03

Question: And the pIC50 [2]?
Answer: 7.77
